Experimental data from paper PMC7508948, “Identification and validation of novel and more effective choline kinase inhibitors against Streptococcus pneumoniae” (Scientific Reports, 2020).
Like-named read-outs stand apart in the source and are kept apart here.

Key:
[1] = biological target: T1, sChoK (Streptococcus pneumoniae, UniProt Q8DPI4); set-up: method as in doi:10.30721/fsab2018.v1.i2.40; conditions: previously reported; read-out: IC50 against sChoK; cited from earlier work
[2] = system: S. pneumoniae; experiment: Interaction with vancomycin-provoked cell lysis; type: cell-based, Streptococcus pneumoniae; conditions: O.D. changes with vancomycin in presence of inhibitor
Protocol: (§1) Figure 3 Effect of drugs on the autolytic process. (A) Percent changes in O.D. were measured in cultures of S. pneumoniae exposed to various concentrations of drugs expressed as multiples of MIC. Percent changes were calculated by comparing initial and final O.D. values. (B) O.D. changes in cells treated with vancomycin (VAN) in the presence and absence of HC-3 (HC3), MN58b (MN), and RSM-932A (RSM). (C) Detergent induced lysis of cells grown to saturation in the presence of 0.5 MIC MN58b and RSM-932A. (D) Phosphate induced lysis of cells grown to saturation in the presence of 0.5 MIC MN58b and RSM-932A.
Autolysis is a process of cell lysis and death that is mediated by LTAs via choline binding autolysins[19] such as LytA. […] In light of the non-specificity observed with HC-3 (being able to interfere with both ChoKs and the autolytic process), it seemed logical to check the specificity of MN58b and RSM-932A for sChoK inhibition. The interaction of MN58b, RSM-932A, and HC-3 with bacteriolytic antibiotic vancomycin was determined (Fig. 3B). […] The non-specificity of HC-3 may help to explain its weakness against sChoK.

[3] = system: S. pneumoniae R6 strain; set-up: method as in PMID 28946671; conditions: previously reported; cited from earlier work
[4] = system: S. pneumoniae R6 strain; experiment: Minimum inhibitory concentration (MIC) and minimum lethal concentration (MLC) in culture; type: cell-based, Streptococcus pneumoniae; conditions: for MLC: S. pneumoniae R6, 99.9% of cells killed by CFU counts; for MIC: Streptococcus pneumoniae, R6STRAIN, S. pneumoniae R6, BHI-CAT, O.D.610 of 0 at end of culture
Protocol: Seven μL of a glycerol stock of the S. pneumoniae R6 strain was used to inoculate 7 mL of Brain Heart Infusion broth (BHI, Accumedia, Sydney, Australia) supplemented with 5 units/mL catalase (BHI-CAT). This starter culture was incubated at 37 °C in a water bath until an optical density at 610 nm (OD610) […]. Forty μL of this starter culture was used to inoculate 40 mL of BHI-CAT media with or without varying concentrations of inhibitor.
MIC was determined as the concentration inhibitor at which an O.D.610 of 0 was measured at the end of culture time. MLC was defined as the concentration at which 99.9% of cells were killed at the end of culturing time as determined by CFU counts using Meuller–Hinton plates.

[5] = system: S. pneumoniae R6 cells; experiment: Western blot detection of lipoteichoic acid (LTA); type: cell-based, Streptococcus pneumoniae; conditions: cells grown to saturation with 0.5 MIC
Protocol: R6 cells were cultured to saturation in either BHI-cat alone or BHI-cat 0.5 MIC of MN58b or RSM-932A. One milliliter (1 mL) of cell samples was centrifuged at 3,000g, sonicated 3 × 2 min on ices. Western blots were performed as described[3] while total protein on the membrane was measured by fluorescence according to Quickstain instructions.
In order to quantify LTA production, western blots were performed on extracts of cells grown to saturation in the presence of 0.5 MIC MN58b or RSM-932A. LTA band patterns clearly differed between treatments. […] It is important to note that each size band in an LTA western blot differs from the lower one by a single LTA residue (Fig. 4A)[19].

[6] = biological target: T1, sChoK; experiment: Substrate-inhibitor competition (competitivity) by LDH/PK; type: biochemical
Protocol: The mechanism of action of the inhibitors with respect to each substrate was determined using a previously described method[13],[14]. Briefly, using the IC50 of each inhibitor determined at the Km of choline, the concentration of one substrate was kept constant, and initial velocities were measured while varying the second substrate in the presence and absence of the inhibitor. The percentage of inhibition (%I) was determined by dividing each initial velocity in the presence of the inhibitor with its corresponding initial velocity in the absence of compound. %I was plotted against concentration and fitted using a two-parameter-fit nonlinear regression algorithm of GnuPlot v 4.3 into Eq. (2).2 %I=100×(([I]/Ki+[S][I]/αKsKi/(1+[S]/Ks+[I]/Ki+[S][I]/αKsKi)) where [S] is the concentration of the varied substrate, [I] is the concentration of inhibitor, Ks is the dissociation constant of the substrate (assumed to be equal to the Km), Ki is the dissociation constant of the inhibitor, and α is a numerical constant that measures the effect the substrate has on the binding of the inhibitor and vice versa.
A mechanistic analysis was performed for each inhibitor by performing steady-state enzymatic reactions with sChoK in which one substrate was varied while the other substrate was fixed both in assays with and without inhibitor fixed at a concentration equal to its IC50. sChoK inhibition was calculated as a percentage (%I) calculated by dividing the initial velocity at each substrate concentration with inhibitor by counterpart initial velocities in the absence of inhibitor. %I values were plotted against substrate concentration. The resulting data was fitting to an Eq. (2) and Ki and α values calculated.

[7] = biological target: T1, sChoK; experiment: Colorimetric choline kinase assay with S. pneumoniae extracts; type: biochemical; conditions: choline consumption
Text: (§2) When using cell extracts such as BL21 (DE3) extracts containing sChoK or S. pneumoniae extracts as the enzyme source, a colorimetric method was used to quantify Cho consumption and PCho production as described previously.
In light of the inconsistent results between sChoK inhibition by MN58b and RSM-932A which are both known choline kinase inhibitors, we repeated the colorimetric experiments using S. pneumoniae extracts as the source of sChoK, The goal of the experiment was to determine whether or not differences in sChoK inhibition could be detected in a more native environment than that provided by extracts of E. coli overexpressing sChoK or purified sChoK. […] This agonism was confirmed by mass spectrometry (data not shown) and was also found to be ATP dependent, thereby supporting the inference that RSM-932A was still affecting sChoK activity, although in the opposite direction.

[8] = system: S. pneumoniae; experiment: Percent O.D. changes of cultures exposed to multiples of MIC (bacteriostatic/bacteriolytic); type: cell-based, Streptococcus pneumoniae; conditions: cultures grown to O.D. 0.500, concentrations as multiples of MIC
Protocol: as §1

[9] = biological target: T1, sChoK; experiment: IC50 by colorimetric method with BL21 (DE3) extracts expressing recombinant sChoK; type: biochemical
Protocol: as §2
The IC50s of each drug against sChoK were measured using two methods: the indirect ldh/pk method that relied on recombinant sChoK and which indirectly measured consumption of ATP[14] and a previously reported colorimetric method that relied on BL21 (DE3) extracts expressing recombinant sChoK, which directly measured the consumption of choline and the production of phosphocholine. Inhibitors were similarly effective in a complex cell extract and in a simplified system relying on a purified enzyme. […] RSM-932A was stronger that MN58b by 1–2 orders of magnitude.

[10] = biological target: T1, sChoK; experiment: IC50 by LDH/PK with purified recombinant sChoK; type: biochemical
Protocol: Purified sChoK was used in these assays. Steady-state enzymatic assays were monitored with the pyruvate kinase/lactate dehydrogenase (PK/LDH) reaction. The steady-state rate of ADP formation was calculated using an extinction coefficient of 6,200 M^−1 cm^−1 to determine linear reductions in NADH concentrations that were observed by absorbance at 340 nm. Measurements were carried out at 25 °C in a UV-Star 96-well plate (Greiner) placed in a Synergy HT microplate reader (Biotek). Each well contained 200 µL of a solution containing 22 nM sChoK enzyme, 100 mM Tris pH 8, 10 mM MgCl2, 150 mM NaCl, 150 mM KCl, […], 0.66 mM phosphoenolpyruvate, 20 units of LDH, and 10 units of PK, choline. ATP. […] The kcat was calculated by dividing the Vmax by the enzyme concentration.
Using the conditions described above, the concentration of choline was set to the Km and increasing amounts of inhibitor were tested. Percent inhibition was determined. The IC50 was determined as the concentration of inhibitor required to reach 50% inhibition.

[11] = system: S. pneumoniae; experiment: Detergent and phosphate induced lysis of cells grown with 0.5 MIC inhibitor; type: cell-based, Streptococcus pneumoniae; conditions: cells grown in presence of 0.5 MIC
Protocol: as §1
Given the observation that MN58b and RSM-932A were sChoK inhibitors, our expectation was that cells treated with these inhibitors would show a decrease in overall LTA content because a decrease in phosphocholine availability would reduce the overall production of LTA residues and, by extension, LTA molecules. A reduction in LTA content, in turn, should help desensitize cells to autolytic induction. Although autolysin proteins would be released, they would not be able to dock on the cell surface because the autolysin choline binding domains would have fewer choline containing LTA molecules with which to interact. Both LTA reduction and cell […] had previously been observed with HC-3[17].

T1 sequence (Q8DPI4 entry or part of it): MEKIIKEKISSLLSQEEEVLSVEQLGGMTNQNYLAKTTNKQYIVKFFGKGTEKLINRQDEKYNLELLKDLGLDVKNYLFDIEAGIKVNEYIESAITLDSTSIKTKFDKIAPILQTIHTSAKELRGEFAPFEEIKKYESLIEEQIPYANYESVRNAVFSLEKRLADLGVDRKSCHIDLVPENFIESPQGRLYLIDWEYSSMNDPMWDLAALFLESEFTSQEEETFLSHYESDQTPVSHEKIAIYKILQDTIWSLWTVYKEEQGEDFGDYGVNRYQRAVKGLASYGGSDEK

## C[N+]1(C)CCOC(O)(c2ccc(-c3ccc(C4(O)C[N+](C)(C)CCO4)cc3)cc2)C1 (centres unmarked) [HC-3, Hemicholinium-3]
[1]
  IC50: 2700 µM
[2]
  Effect on cell lysis provoked by vancomycin: prevented cell lysis provoked by vancomycin
[3]
  MIC: 5,400 µM

## CN(C)c1cc[n+](Cc2ccc(CCCCc3ccc(C[n+]4ccc(N(C)C)cc4)cc3)cc2)cc1 [MN58b, 1,4-[4–4′-Bis-{[4-(dimethylamine)pyridinium-1-yl]methyl}diphenyl]butane dibromide]
[4]
  MLC: 20 µM
  MIC: 10 µM
[5]
  LTA size pattern: marked increase in the smaller sizes of LTA
  Total LTA production: marked increase in total LTA production
[6]; (A) inhibitor vs ATP
  Kminh/Kmfree: 3.48
  Mechanism of Inhibition: Mixed
  Vmaxinh/Vmaxfree: 0.76
  α: 6.0 ± 2.2
  Ki: 182 ± 28.1 µM
[6]; (B) inhibitor vs choline
  Kminh/Kmfree: 2.3
  Mechanism of Inhibition: Mixed
  Vmaxinh/Vmaxfree: 0.69
  Ki: 124 ± 19.2 µM
[7]
  Effect on choline kinase activity in S. pneumoniae extracts: continued to function as an inhibitor of choline kinase activity
[8]
  Bacteriostatic or bacteriolytic action: bacteriostatic up to a concentration of 50 × MIC after which they become bacteriolytic
[2]
  Effect on cell lysis provoked by vancomycin: minimal to no effect
[9]
  IC50: 225 µM
[10]
  IC50: 645 µM
[11]
  Sensitivity of cells to induced autolysis: primed the cells to be autolyzed

## CN(c1ccc(Cl)cc1)c1cc[n+](Cc2ccc(-c3ccc(C[n+]4ccc(N(C)c5ccc(Cl)cc5)c5ccccc54)cc3)cc2)c2ccccc12.[Br-].[Br-] [RSM-932A, 1,1′-([1,1′-biphenyl]-4,4′-diylbis(methylene))bis(4-((4-chlorophenyl)(methyl)amino)quinolin-1-ium) bromide]
[4]
  MLC: 1.6 µM
  MIC: 0.4 µM
[5]
  LTA size pattern: larger size polymers were favored
  Total LTA production: overall production remained unchanged
[6]; (A) inhibitor vs ATP
  Kminh/Kmfree: 0.92
  Mechanism of Inhibition: Noncompetitive
  Vmaxinh/Vmaxfree: 0.61
  α: 1.1 ± 0.17
  Ki: 35.8 ± 3.2 µM
[6]; (B) inhibitor vs choline
  Mechanism of Inhibition: Mixed
  Vmaxinh/Vmaxfree: 0.76
  α: 8.1 ± 1.8
  Ki: 10.6 ± 0.9 µM
[7]
  Effect on choline kinase activity in S. pneumoniae extracts: somewhat inhibitory at lower concentrations, it functioned as an agonist of choline kinase activity at higher concentrations
[8]
  Bacteriostatic or bacteriolytic action: bacteriostatic up to a concentration of 50 × MIC after which they become bacteriolytic
[2]
  Effect on cell lysis provoked by vancomycin: minimal to no effect
[9]
  IC50: 0.5 µM
[10]
  IC50: 22 µM
[11]
  Sensitivity of cells to induced autolysis: equally sensitive to autolysis as untreated controls
